# Assay results from US11542240B2, “STK19 inhibitors for treatment of cancer” (TRUSTEES OF BOSTON UNIVERSITY, priority 2018, dated 2023).
# Read-outs that look alike come from different tables or passages of the source.
# Legend:
# Assay in all cases: biochemical
# Assay type in all cases: binding
# [1] = target: panel of 468 diverse kinases (Homo sapiens, UniProt P04626); details: ERBB2; 1000 nM; read-out: Percent Control
# [2] = target: panel of 468 diverse kinases (Homo sapiens, UniProt P10721); details: 1000 nM, read-out: Percent Control
# panel of 468 diverse kinases (Homo sapiens, UniProt P10721), sequence (P10721 26-976 limits assumed): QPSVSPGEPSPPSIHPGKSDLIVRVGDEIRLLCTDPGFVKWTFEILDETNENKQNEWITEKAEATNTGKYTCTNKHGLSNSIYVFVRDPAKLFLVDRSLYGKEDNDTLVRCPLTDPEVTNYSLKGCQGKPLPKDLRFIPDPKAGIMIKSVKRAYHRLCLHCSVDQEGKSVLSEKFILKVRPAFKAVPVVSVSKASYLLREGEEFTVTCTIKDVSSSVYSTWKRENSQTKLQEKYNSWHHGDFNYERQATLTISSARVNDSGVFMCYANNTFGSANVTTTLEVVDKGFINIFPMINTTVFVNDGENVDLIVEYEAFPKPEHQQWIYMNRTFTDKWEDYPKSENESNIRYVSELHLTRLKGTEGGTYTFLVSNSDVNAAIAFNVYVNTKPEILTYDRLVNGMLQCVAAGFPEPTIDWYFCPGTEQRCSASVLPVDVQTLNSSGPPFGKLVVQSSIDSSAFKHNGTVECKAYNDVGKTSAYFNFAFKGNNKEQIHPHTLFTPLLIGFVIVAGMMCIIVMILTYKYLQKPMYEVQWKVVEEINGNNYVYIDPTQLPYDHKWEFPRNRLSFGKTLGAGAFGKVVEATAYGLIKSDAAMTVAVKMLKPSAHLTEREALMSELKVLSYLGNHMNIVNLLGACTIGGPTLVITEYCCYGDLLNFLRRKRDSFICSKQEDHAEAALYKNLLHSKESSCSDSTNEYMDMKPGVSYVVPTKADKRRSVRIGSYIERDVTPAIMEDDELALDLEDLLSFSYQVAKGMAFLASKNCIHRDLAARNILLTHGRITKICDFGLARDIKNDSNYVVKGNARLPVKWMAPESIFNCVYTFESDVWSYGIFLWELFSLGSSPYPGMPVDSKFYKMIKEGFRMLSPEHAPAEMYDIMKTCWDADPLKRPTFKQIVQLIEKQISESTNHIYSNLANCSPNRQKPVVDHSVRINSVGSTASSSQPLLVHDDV
# [3] = target: panel of 468 diverse kinases (Homo sapiens, UniProt P10721, A829P); details: KIT(A829P); 1000 nM; read-out: Percent Control
# panel of 468 diverse kinases (Homo sapiens, UniProt P10721, A829P), sequence (P10721 26-976 A829P limits assumed): as the sequence (P10721 26-976 limits assumed) above, with A804P counted along it
# [4] = target: panel of 468 diverse kinases (Homo sapiens, UniProt P10721, L576P); details: KIT(L576P); 1000 nM; read-out: Percent Control
# panel of 468 diverse kinases (Homo sapiens, UniProt P10721, L576P), sequence (P10721 26-976 L576P limits assumed): as the sequence (P10721 26-976 limits assumed) above, with L551P counted along it
# [5] = target: panel of 468 diverse kinases (Homo sapiens, UniProt P15735); details: PHKG2; 1000 nM; read-out: Percent Control
# [6] = target: panel of 468 diverse kinases (Homo sapiens, UniProt P42336, M1043I); details: PIK3CA(M1043I); 1000 nM; read-out: Percent Control
# [7] = target: panel of 468 diverse kinases (Homo sapiens, UniProt P42345); details: MTOR; 1000 nM; read-out: Percent Control
# [8] = target: panel of 468 diverse kinases (Homo sapiens, UniProt P42679); details: CTK; 1000 nM; read-out: Percent Control
# [9] = target: panel of 468 diverse kinases (Homo sapiens, UniProt P48730); details: CSNK1D; 1000 nM; read-out: Percent Control
# [10] = target: panel of 468 diverse kinases (Homo sapiens, UniProt P48736); details: PIK3CG; 1000 nM; read-out: Percent Control
# [11] = target: panel of 468 diverse kinases (Homo sapiens, UniProt P49760); details: CLK2; 1000 nM; read-out: Percent Control
# [12] = target: panel of 468 diverse kinases (Homo sapiens, UniProt P53350); details: PLK1; 1000 nM; read-out: Percent Control
# panel of 468 diverse kinases (Homo sapiens, UniProt P53350), sequence (P53350 2-603 limits assumed): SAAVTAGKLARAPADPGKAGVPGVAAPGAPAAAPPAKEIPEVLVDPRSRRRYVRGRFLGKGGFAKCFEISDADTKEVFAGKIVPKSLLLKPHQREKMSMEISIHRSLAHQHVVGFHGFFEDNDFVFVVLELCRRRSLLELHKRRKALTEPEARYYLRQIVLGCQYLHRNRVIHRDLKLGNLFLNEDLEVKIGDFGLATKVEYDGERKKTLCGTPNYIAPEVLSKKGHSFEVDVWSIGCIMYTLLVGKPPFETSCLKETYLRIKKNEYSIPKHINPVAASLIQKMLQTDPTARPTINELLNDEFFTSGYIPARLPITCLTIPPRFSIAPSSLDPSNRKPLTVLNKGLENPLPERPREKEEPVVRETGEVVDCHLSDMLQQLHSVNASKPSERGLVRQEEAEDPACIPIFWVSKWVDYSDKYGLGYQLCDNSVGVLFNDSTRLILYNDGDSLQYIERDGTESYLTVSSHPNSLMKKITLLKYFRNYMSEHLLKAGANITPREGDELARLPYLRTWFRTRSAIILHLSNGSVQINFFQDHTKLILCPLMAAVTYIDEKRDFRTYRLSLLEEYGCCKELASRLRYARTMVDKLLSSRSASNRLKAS
# [13] = target: panel of 468 diverse kinases (Homo sapiens, UniProt P54646); details: AMPK-alpha2; 1000 nM; read-out: Percent Control
# [14] = target: panel of 468 diverse kinases (Homo sapiens, UniProt P54753); details: EPHB3; 1000 nM; read-out: Percent Control
# panel of 468 diverse kinases (Homo sapiens, UniProt P54753), sequence (P54753 34-998 limits assumed): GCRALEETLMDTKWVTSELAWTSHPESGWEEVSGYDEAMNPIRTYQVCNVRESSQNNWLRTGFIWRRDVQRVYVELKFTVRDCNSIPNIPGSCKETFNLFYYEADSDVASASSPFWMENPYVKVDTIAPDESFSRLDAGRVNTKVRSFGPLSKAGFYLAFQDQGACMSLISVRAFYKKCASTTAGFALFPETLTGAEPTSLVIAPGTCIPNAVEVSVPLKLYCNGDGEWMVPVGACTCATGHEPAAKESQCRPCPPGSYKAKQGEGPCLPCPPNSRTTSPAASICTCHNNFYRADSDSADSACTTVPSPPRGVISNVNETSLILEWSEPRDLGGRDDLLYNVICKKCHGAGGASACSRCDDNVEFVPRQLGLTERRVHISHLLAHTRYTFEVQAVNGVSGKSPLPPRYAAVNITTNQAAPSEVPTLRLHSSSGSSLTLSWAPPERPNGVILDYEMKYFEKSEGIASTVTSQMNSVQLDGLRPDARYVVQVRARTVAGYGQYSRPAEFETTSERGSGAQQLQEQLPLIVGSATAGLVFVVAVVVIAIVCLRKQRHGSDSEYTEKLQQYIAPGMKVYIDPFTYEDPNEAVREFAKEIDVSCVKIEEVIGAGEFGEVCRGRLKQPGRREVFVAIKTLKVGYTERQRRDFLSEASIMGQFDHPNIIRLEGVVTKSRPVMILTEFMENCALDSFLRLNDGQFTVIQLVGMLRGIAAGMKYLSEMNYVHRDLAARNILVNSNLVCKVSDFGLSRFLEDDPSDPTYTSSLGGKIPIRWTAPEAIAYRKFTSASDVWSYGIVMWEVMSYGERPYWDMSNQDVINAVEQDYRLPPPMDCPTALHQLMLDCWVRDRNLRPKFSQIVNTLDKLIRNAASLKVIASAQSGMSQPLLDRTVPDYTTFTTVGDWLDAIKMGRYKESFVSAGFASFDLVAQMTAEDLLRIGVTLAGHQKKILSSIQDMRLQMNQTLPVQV
# [15] = target: panel of 468 diverse kinases (Homo sapiens, UniProt Q04912); details: MST1R; 1000 nM; read-out: Percent Control
# panel of 468 diverse kinases (Homo sapiens, UniProt Q04912), sequence (Q04912 25-304 limits assumed): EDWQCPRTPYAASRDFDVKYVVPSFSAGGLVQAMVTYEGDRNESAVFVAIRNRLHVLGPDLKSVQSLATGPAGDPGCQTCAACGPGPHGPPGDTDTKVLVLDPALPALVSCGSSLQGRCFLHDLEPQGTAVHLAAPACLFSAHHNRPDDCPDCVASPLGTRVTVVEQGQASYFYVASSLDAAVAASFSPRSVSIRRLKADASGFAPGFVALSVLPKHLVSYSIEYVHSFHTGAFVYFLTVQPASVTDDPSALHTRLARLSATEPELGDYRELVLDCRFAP
# panel of 468 diverse kinases (Homo sapiens, UniProt Q04912), sequence (Q04912 310-1400 limits assumed): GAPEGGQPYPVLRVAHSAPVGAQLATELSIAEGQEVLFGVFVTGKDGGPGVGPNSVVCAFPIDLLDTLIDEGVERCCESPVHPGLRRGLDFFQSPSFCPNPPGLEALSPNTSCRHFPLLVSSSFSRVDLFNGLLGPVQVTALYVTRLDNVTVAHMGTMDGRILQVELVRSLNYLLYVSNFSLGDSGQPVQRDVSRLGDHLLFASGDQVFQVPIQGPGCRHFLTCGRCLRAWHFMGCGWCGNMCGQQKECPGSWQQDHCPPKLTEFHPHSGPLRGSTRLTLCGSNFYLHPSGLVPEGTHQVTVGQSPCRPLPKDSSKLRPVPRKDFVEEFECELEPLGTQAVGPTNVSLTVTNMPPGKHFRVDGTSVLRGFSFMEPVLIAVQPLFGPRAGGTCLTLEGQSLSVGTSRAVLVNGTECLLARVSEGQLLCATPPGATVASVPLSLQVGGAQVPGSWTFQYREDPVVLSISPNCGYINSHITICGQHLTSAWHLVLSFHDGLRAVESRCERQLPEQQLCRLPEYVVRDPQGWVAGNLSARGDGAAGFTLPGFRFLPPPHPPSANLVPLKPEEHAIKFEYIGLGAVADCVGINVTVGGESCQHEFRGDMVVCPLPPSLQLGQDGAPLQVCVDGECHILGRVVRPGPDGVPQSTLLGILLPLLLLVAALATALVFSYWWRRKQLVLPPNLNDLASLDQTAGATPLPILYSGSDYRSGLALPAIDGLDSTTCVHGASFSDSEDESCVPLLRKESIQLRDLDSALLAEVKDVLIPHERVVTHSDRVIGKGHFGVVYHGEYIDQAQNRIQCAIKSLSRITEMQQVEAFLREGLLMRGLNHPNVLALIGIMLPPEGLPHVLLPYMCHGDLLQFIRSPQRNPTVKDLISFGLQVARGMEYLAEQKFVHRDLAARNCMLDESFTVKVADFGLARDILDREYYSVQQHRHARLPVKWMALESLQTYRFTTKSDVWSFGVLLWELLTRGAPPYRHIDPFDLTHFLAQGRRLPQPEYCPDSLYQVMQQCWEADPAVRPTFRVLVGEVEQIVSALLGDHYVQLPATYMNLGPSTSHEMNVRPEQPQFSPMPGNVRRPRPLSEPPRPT
# [16] = target: panel of 468 diverse kinases (Homo sapiens, UniProt Q07002); details: PCTK3; 1000 nM; read-out: Percent Control
# [17] = target: panel of 468 diverse kinases (Homo sapiens, UniProt Q13627); details: DYRKIV; 1000 nM; read-out: Percent Control
# [18] = target: panel of 468 diverse kinases (Homo sapiens, UniProt Q14164); details: IKK-epsilon; 1000 nM; read-out: Percent Control
# [19] = target: panel of 468 diverse kinases (Homo sapiens, UniProt Q15759); details: p38-beta; 1000 nM; read-out: Percent Control
# [20] = target: panel of 468 diverse kinases (Homo sapiens, UniProt Q2M2I8); details: AAK1; 1000 nM; read-out: Percent Control
# [21] = target: panel of 468 diverse kinases (Homo sapiens, UniProt Q6ZWH5); details: NEK10; 1000 nM; read-out: Percent Control
# [22] = target: panel of 468 diverse kinases (Homo sapiens, UniProt Q86UX6); details: YANK3; 1000 nM; read-out: Percent Control
# [23] = target: panel of 468 diverse kinases (Homo sapiens, UniProt Q86Y07); details: VRK2; 1000 nM; read-out: Percent Control
# [24] = target: panel of 468 diverse kinases (Homo sapiens, UniProt Q8IYT8); details: ULK2; 1000 nM; read-out: Percent Control
# [25] = target: panel of 468 diverse kinases (Homo sapiens, UniProt Q8NG66); details: NEK11; 1000 nM; read-out: Percent Control
# [26] = target: panel of 468 diverse kinases (Homo sapiens, UniProt Q96GD4); details: AURKB; 1000 nM; read-out: Percent Control
# [27] = target: panel of 468 diverse kinases (Homo sapiens, UniProt Q99640); details: PKMYT1; 1000 nM; read-out: Percent Control
# [28] = target: panel of 468 diverse kinases (Homo sapiens, UniProt Q9BXA7); details: TSSK1B; 1000 nM; read-out: Percent Control
# [29] = target: panel of 468 diverse kinases (Homo sapiens, UniProt Q9P0L2); details: MARK1; 1000 nM; read-out: Percent Control
# [30] = target: panel of 468 diverse kinases (Homo sapiens, UniProt Q9Y2H9); details: MAST1; 1000 nM; read-out: Percent Control
# [31] = target: panel of 468 diverse kinases (Homo sapiens, UniProt Q9Y6R4); details: MAP3K4; 1000 nM; read-out: Percent Control
structure (smiles),measurement,setting,value
COc1cc2nc(NC3CC3)nc(NC3CCN(C(C)C)CC3)c2cc1OC [Formula IV],remaining activity at 1 µM,[1],100%
same,remaining activity at 1 µM,[2]; KIT-autoinhibited,57%
same,remaining activity at 1 µM,[2]; KIT,95%
same,remaining activity at 1 µM,[3],78%
same,remaining activity at 1 µM,[4],100%
same,remaining activity at 1 µM,[5],83%
same,remaining activity at 1 µM,[6],83%
same,remaining activity at 1 µM,[7],87%
same,remaining activity at 1 µM,[8],32%
same,remaining activity at 1 µM,[9],98%
same,remaining activity at 1 µM,[10],83%
same,remaining activity at 1 µM,[11],90%
same,remaining activity at 1 µM,[12],70%
same,remaining activity at 1 µM,[13],93%
same,remaining activity at 1 µM,[14],100%
same,remaining activity at 1 µM,[15],100%
same,remaining activity at 1 µM,[16],86%
same,remaining activity at 1 µM,[17],60%
same,remaining activity at 1 µM,[18],84%
same,remaining activity at 1 µM,[19],87%
same,remaining activity at 1 µM,[20],91%
same,remaining activity at 1 µM,[21],50%
same,remaining activity at 1 µM,[22],94%
same,remaining activity at 1 µM,[23],56%
same,remaining activity at 1 µM,[24],59%
same,remaining activity at 1 µM,[25],42%
same,remaining activity at 1 µM,[26],84%
same,remaining activity at 1 µM,[27],93%
same,remaining activity at 1 µM,[28],85%
same,remaining activity at 1 µM,[29],92%
same,remaining activity at 1 µM,[30],72%
same,remaining activity at 1 µM,[31],100%
